{"source": "patent US12594271B2", "about": "“Combination therapy for cancer” (Health Research, Inc., priority 2019, dated 2026)", "key": {"MDSCs": {"tested_on": "MDSCs", "assay": "Phenotype, viability and morphology of in vitro generated MDSC cultures", "format": "cell-based, mouse", "experimental": "In Vitro Development of MDSCs. Unfractionated mouse bone marrow cells were cultured in dishes with recombinant mouse G-CSF and recombinant mouse GM-CSF (40 ng/ml of each cytokine) for 96 hours to produce MDSCs, as described (Marigo et al. Immunity 32:790-802, 2010). After culture, cells were collected and analyzed by flow cytometry for the indicated cell surface markers. Uncultured or fresh bone marrow (BM) cells served as a negative control.\nEffect of BRQ Treatment on In Vitro Generated MDSCs. As in FIG. 4, MDSCs were generated in vitro, but now with or without (vehicle) the concurrent addition of brequinar (BRQ) (1 μM) at the start of the culture. After culture, cells were collected and analyzed by flow cytometry for the indicated cell surface markers. Uncultured (fresh) BM cells served as a negative control. Viable cells were enumerated by trypan blue dye exclusion (bottom left panel, % viability; bottom right panel, total viable cells recovered).\nCells Treated with BRQ Appear More Mature Morphologically and Phenotypically. Methods were the same as in FIG. 6. MDSCs were generated in vitro with or without BRQ. Afterwards, cells were collected and analyzed morphologically by Wright-Giemsa staining of cytospin-prepared slides. Left top panel, representative photomicrograph images [(arrows indicate representative immature myeloid (−BRQ) vs. mature (+BRQ) cell types)]; Left bottom panel, the % of each cell type was quantified as follows. Cells were classified into 3 main morphologic cell types, as shown. For the lower panel, 300 cells were analyzed per random field and 3 separate fields were analyzed (totaling 900 cells). The average number of each cell type was determined by dividing by 3, and the data were converted to a percentage within the total population. Using the in vitro assay described previously to produce MDSCs, the CD11b^+Ly6C^lo Ly6G^+ subset (also known as PMN-MDSCs) was analyzed for cell surface CD101 expression by flow cytometry on cultures without BRQ (labeled here as ‘GM-CSF+G-CSF’) or with BRQ. Isotype control staining was included as a negative control for the specificity of CD101 reactivity. Middle panel, representative histogram; right panel, mean fluorescence intensity (MFI) data quantified from 2 separate experiments."}, "E0771": {"tested_on": "E0771", "assay": "E0771 mammary tumor model: bone marrow multi-spectral flow cytometry", "format": "in vivo", "conditions": "endpoint", "experimental": "BRQ Alters the Bone Marrow Myeloid Compartment in Triple Negative Breast Cancer Model. This study was performed in another mammary tumor model, termed E0771. The experimental design is as described in FIG. 12 and bone marrow cells were collected at endpoint, as in FIG. 19 for flow cytometric analysis. Here, BM samples were analyzed by multi-spectral high dimensional flow cytometry using a Cytek Aurora Spectral Flow Cytometer and the data are illustrated as a TSNE plot (i.e, t-distributed Stochastic Neighbor). Circled regions refer to the data of interest."}, "[1]": {"conditions": "BRQ 1 μM, trypan blue dye exclusion"}, "[2]": {"conditions": "bone marrow cells cultured with BRQ, morphologic analyses"}, "[3]": {"conditions": "cultures with BRQ, Wright-Giemsa staining"}}}
{"smiles": "Cc1c(-c2ccc(-c3ccccc3F)cc2)nc2ccc(F)cc2c1C(=O)O", "note": "[BRQ, 6-Fluoro-2-(2′-fluoro-[1,1′-biphenyl]-4-yl)-3-methylquinoline-4-carboxylic acid]", "values": [{"measurement": "generation of CD11b+Gr-1+ cells", "setting": "MDSCs; BRQ 1 μM, flow cytometry", "result": "did not substantially alter"}, {"measurement": "cell viability", "setting": "MDSCs; [1]", "result": "not significantly altered"}, {"measurement": "number of live cells recovered", "setting": "MDSCs; [1]", "result": "substantially reduced"}, {"measurement": "mature myeloid cells (mainly neutrophils and macrophages)", "setting": "MDSCs; [2]", "result": "corresponding increase in mature myeloid cells"}, {"measurement": "reduction in immature myeloid cells", "setting": "MDSCs; [2]", "result": 75, "unit": "%"}, {"measurement": "immature cell types", "setting": "MDSCs; [3]", "result": "reduction in immature cell types"}, {"measurement": "proportion of macrophages", "setting": "MDSCs; [3]", "result": "no demonstrable effect"}, {"measurement": "proportion of segmented neutrophils", "setting": "MDSCs; [3]", "result": "increased the proportion of segmented neutrophils"}, {"measurement": "cell surface CD101 expression (MFI) on CD11b+Ly6CloLy6G+ subset", "setting": "MDSCs; cultures with BRQ, flow cytometry", "result": "significantly increased the expression of CD101"}, {"measurement": "frequency of granulocyte progenitors (GPs) in bone marrow", "setting": "E0771", "result": "reduced the frequency of granulocyte progenitors"}, {"measurement": "frequency of monocyte progenitors (MPs) in bone marrow", "setting": "E0771", "result": "increased the frequency of monocyte progenitors"}]}
